In US20090209620A1, “Direct Reversal Of The Suppressive Function Of CD4+Regulatory T Cells Via Toll-Like Receptor 8 Signaling” (priority 2005, published 2009):
Entries after “also recorded” stand apart in the source; their conditions may differ. In the oligonucleotide strings, read from the 5' end, every base follows the letter of its sugar. An asterisk marks phosphorothioate; unmarked linkages are phosphodiester. Other units and linkages are bracketed, terminal groups are in braces. A string of capitals states the bases alone. d = 2'-deoxy (DNA)

Key:
Format in all cases: cell-based, human
CD4+ Treg cells = assay: Pretreatment of Treg cells, then proliferation assay with naive CD4+ T cells (without DCs); conditions: Treg cells pretreated 3 days, washed, then mixed with naive CD4+ T cells
Description: C. Pretreatment of Treg cells: 1×10^6 Treg cells were cultured in medium containing CpG-A (3 ug/ml), CpG-B (3 ug/ml), LPS (100 ng/ml), TNF.-α (20 ng/ml), IFN-α (100 ng/ml) or IL-6 (100 ng/ml) for 3 days. After three washes, the pretreated Treg cells were cultured with näive CD4^+ T cells in anti-CD3 mAb-coated plates (without DCs) to determine their suppressive function. After 56 h of culture, [3H]thymidine was added at a final concentration of 1 uCi/well, and cultured for an additional 16 h. The incorporation of [^3H]thymidine was measured with a liquid scintillation counter.
To exclude the possibility that the purified naive CD4^+ T cells might have been contaminated with a small number of monocytes or DCs, cultured CD4^+ Treg cells (100% purity) were pretreated with CpG-A (SEQ ID NO: 1) for 3 days. After three washes, the pretreated CD4^+ Treg cells were mixed with naive CD4^+ T cells in anti-CD3 antibody-coated plates to evaluate their ability to suppress the proliferation of naive CD4^+ T cells.
To determine whether the CpG motif in CpG A confers the ability to reverse the suppressive function of CD4^+ Treg cells, CD4^+ Treg cell lines were pretreated for 3 days with CpG-A (SEQ ID NO: 1), non-CpG-A (CG changed to GC in CpG-A; SEQ ID NO: 3), CpG B (SEQ ID NO: 2) or non-CpG-B (CG changed to GC in CpG-B; SEQ ID NO: 4), and used them in proliferation assays following extensive washes.
Treg cells were pretreated with Poly-G2 (SEQ ID NO: 15) in different concentrations of chloroquine to examine whether acidification is required for the function of guanosine containing oligonucleotides. After extensive washes, the pretreated Treg cells were used for functional assays.

Treg102 cells = assay: Reversibility of siRNA-transduced Treg102 cells by Poly-G10 (functional proliferation assay)
Source text: (§1) Several siRNA sequences (19 nucleotides) for each gene were selected with use of computer-assisted programs. Oligonucleotides containing a siRNA sequence, 8 nucleotide spacers, and a polyT terminator sequence were annealed and then cloned into the HapI and XhoI sites of GFP-expressing pLentilox3.7 vector using methods well known in the art (See, e.g., D. A. Rubinson et al., Nat. Genet. 33, 401-6 (2003)). siRNA was under the control of a U6 promoter. The following DNA sequences used to construct siRNAs for IRAK4, MyD88, and TLR7, 8 and 9, were effective in silencing their corresponding genes:
5×10^6 293T cells were pre-seeded onto 100-mm dishes and transfected with 12 μg siRNA lentiviral DNA, 12 μg VSV-G plasmid DNA and 12 μg packaging viral CMV delta 8.9 plasmid, using Lipofectamine 2000. After the addition of fresh culture medium 8 h later, the cells were cultured for an additional 2-3 days. Viral supernatants were harvested, passed through a […] filter and concentrated by ultracentrifugation at 20,000 rpm for 2 h. Virus pellets were resuspended in a small volume of medium, and viral titers were determined by infecting 293T cells with serially diluted doses of virus. For transduction of T cells, T cells (2×106 ) were first activated by OKT3 (2 ug/ml)-coated plates and then were mixed with the concentrated lentiviral supernatant with a multiplicity of infection (MOI) of 10-15 in a total volume of 0.5 ml T cell medium containing 8 ug/ml polybrene (Sigma), and then span at 1000×g for 1 h at room temperature. After 16 h of incubation, 0.5 ml of T cell medium was added to each well. Forty-eight hours later, the T cells were transduced again with the same concentrated viral supernatants. Transduction efficiency was analyzed at 3 or 4 days post-transduction, and the cells were sorted into GFP^+and GFP^−cells with a FACS ARIA sorter. The sorted cells (GFP^+and GFP^−) and untransduced Treg cells were then used to determine their reversibility by Poly-G10 in functional proliferation assays.
The current model of TLR signaling pathways predicts that TLR1, 2, 5, 6, 7, 8, and 9 use MyD88 as their sole receptor-proximal adaptor to transduce signals, TLR3 uses interferon-regulated factor 3 (IRF3) for the production of IFN-α in response to pathogen recognition, while TLR4 is linked to both MyD88-dependent and MyD88 independent pathways. Since MyD88 is important for the signaling activities of most TLRs, it stood to reason that its dependent pathway, in which IRKA4 transduces signals from MyD88 to TRAF6 and other downstream molecules, would likely be involved in TLR signaling initiated by guanosine-containing oligonucleotides. Four or five eGFP-expressing lentiviral constructs containing U6-driven siRNAs were made for each gene and were tested their abilities to specifically knock down their respective target proteins. In FIG. 3A, the efficiency of knock down by siRNA was determined by Western blot analysis. Both IRAK4 and MyD88 were tagged with a FLAG epitope, and detected by anti-FLAG antibody (M2). 293T cells transfected with either FLAG-IRAK4 or FLAG-MyD88 served as positive controls, while nontranseffected 293T cells were negative controls. The amount of β-actin in each lane served as loading controls for the samples. […] Treg102 cells were next transduced with an IRAK4 siRNAl lentivirus. After 3 days in culture, they were sorted by FACS into transduced (GFP^+) and untransduced (GFP^− control) Treg cell populations (FIG. 3B). The purity of GFP^+ and GFP^− cells was confirmed by FACS analysis. […] This notion was further supported by experiments in which Treg102 cells were transduced with MyD88 siRNAs. […] For FIG. 3C, uninfected parental Treg108 cells and Poly-T10 oligonucleotides served as controls. Data are presented as means±SD and represent results from three independent experiments. Similar results were obtained with Treg164 cell lines. […]

Treg164 cells = assay: Reversibility of siRNA-transduced Treg164 cells by Poly-G10 (functional proliferation assay)
Source text: as §1
5×10^6 293T cells were pre-seeded onto 100-mm dishes and transfected with 12 μg siRNA lentiviral DNA, 12 μg VSV-G plasmid DNA and 12 μg packaging viral CMV delta 8.9 plasmid, using Lipofectamine 2000. After the addition of fresh culture medium 8 h later, the cells were cultured for an additional 2-3 days. Viral supernatants were harvested, passed through a […] filter and concentrated by ultracentrifugation at 20,000 rpm for 2 h. Virus pellets were resuspended in a small volume of medium, and viral titers were determined by infecting 293T cells with serially diluted doses of virus. […] Transduction efficiency was analyzed at 3 or 4 days post-transduction, and the cells were sorted into GFP^+and GFP^−cells with a FACS ARIA sorter. […]

Substance	reversal of suppressive function of CD4+ Treg cells after pretreatment (CD4+ Treg cells)	reversibility of suppression by Poly-G10 (Treg102 cells; IRAK4 siRNA-transduced (GFP+) Treg102 cells)	reversibility of suppression by Poly-G10 (Treg102 cells; MyD88 siRNA-transduced (GFP+) Treg102 cells)	reversibility of suppression by Poly-G10 (Treg102 cells; TLR7 siRNA or TLR9 siRNA-transduced (GFP+) Treg cells)	reversibility of suppression by Poly-G10 (Treg102 cells; TLR8 siRNA-transduced (GFP+) Treg102 cells)	reversibility of suppression by Poly-G10 (Treg102 cells; Treg cells transduced with control siRNA virus)	reversibility of suppression by Poly-G10 (Treg102 cells; untransduced (GFP-) Treg102 cells)	reversibility of suppression by Poly-G10 (Treg164 cells; IRAK4 siRNA-transduced (GFP+) Treg164 cells)	reversibility of suppression by Poly-G10 (Treg164 cells; MyD88 siRNA-transduced (GFP+) Treg164 cells)
G* GGGGACGATCGTCG* G*G*G*G*G [CpG-A]	reverses their suppressive function; also recorded: reversed the suppressive effect; also recorded: reversed the suppressive activities of CD4^+ Treg cells equally well								
Poly-G10: guanosine oligonucleotide with protected phosphorothioate backbone (DNA dG*dG*dG*dG*dG*dG*dG*dG*dG*dG)		could not be reversed	completely lost their ability to respond	retained the same reversible suppressive function	could not be reversed	Neither the suppressive activity nor the reversibility of the suppression was affected	reversed as readily as the parental Treg102 cells	lost the capacity to reverse their suppressive function	lost the capacity to reverse their suppressive function
